# Assay results: patent US20110028686A1, “Protein binding miniature proteins” (Yale University, priority 2000, published 2011)
# Square brackets hold non-standard residues; d marks the D form. Ends that are not written are not given here. Peptide text beside a SMILES is read from it. * marks the point of attachment. X1 = C[C@]12O[C@H](C[C@]1(O)C(=O)NCCCCCCCCNC(=O)C*)n1c3ccccc3c3c4c(c5c6ccccc6n2c5c31)CNC4=O; Fluorescein(5-NHCOCH2) = O=C(C*)Nc1ccc2c(c1)C(=O)OC21c2ccc(O)cc2Oc2cc(O)ccc21; pS = N[C@@H](COP(=O)(O)O)C(=O)O
# Key:
# [1] = biological target: protein kinase Cα (PKC-α) (Homo sapiens, UniProt P17252); assay: Phosphotransferase assay, PKC-α; format: biochemical; settings: 1-K252a up to 100 nM; 1 up to 5 μM
# Akt kinase (PKB) = Akt kinase (PKB) (Homo sapiens, UniProt P31749); assay: Phosphotransferase assay, PKB; format: biochemical; settings: 1-K252a up to 100 nM; 1 up to 5 μM
# [2] = system: cGMP-dependent protein kinase (PKG); assay: Phosphotransferase assay, PKG; format: biochemical; settings: for inhibition of PKG phosphotransferase activity: 1 up to 5 μM
# [3] = system: Ca++/calmodulin kinase II (CamKII); assay: Phosphotransferase assay, CamKII; format: biochemical; settings: 1-K252a up to 100 nM; 1 up to 5 μM
# Bcl-2 = Bcl-2 (Homo sapiens, UniProt P10415); assay: Bcl-2 binding by fluorescence emission of fluorescein-labeled peptide; settings: read-out: Kd for binding to Bcl-2, 4° C., PBS
# catalytic subunit of PKA = catalytic subunit of PKA (Homo sapiens, UniProt P17612); assay: Fluorescence polarization, affinity for PKA catalytic subunit; format: binding
# PKA = PKA (Homo sapiens, UniProt P17612); assay: PKA phosphotransferase assay, streptavidin-matrix capture of [32P]-phosphorylated substrates; format: biochemical
# CBP KIX wild type = biological target: T1, CBP KIX wild type (Mus musculus, UniProt P45481); assay: Equilibrium fluorescence polarization, wild type CBP KIX; format: binding; settings: 25° C.
# T1 construct: made in house; host or cells: E. coli BL21(DE3) pArg
# T1 sequence (P45481 586-665 limits assumed): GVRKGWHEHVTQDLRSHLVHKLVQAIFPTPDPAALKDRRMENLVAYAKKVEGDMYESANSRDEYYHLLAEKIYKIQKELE
# Chain of Bcl-2 (P10415 1-205): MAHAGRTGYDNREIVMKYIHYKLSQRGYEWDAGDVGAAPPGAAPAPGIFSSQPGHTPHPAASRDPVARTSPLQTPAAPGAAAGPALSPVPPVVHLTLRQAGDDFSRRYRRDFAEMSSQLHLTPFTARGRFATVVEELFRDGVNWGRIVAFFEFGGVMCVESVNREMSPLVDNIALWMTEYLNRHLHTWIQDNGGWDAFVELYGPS
# Chain of Akt kinase (PKB) (P31749 whole entry, species assumed): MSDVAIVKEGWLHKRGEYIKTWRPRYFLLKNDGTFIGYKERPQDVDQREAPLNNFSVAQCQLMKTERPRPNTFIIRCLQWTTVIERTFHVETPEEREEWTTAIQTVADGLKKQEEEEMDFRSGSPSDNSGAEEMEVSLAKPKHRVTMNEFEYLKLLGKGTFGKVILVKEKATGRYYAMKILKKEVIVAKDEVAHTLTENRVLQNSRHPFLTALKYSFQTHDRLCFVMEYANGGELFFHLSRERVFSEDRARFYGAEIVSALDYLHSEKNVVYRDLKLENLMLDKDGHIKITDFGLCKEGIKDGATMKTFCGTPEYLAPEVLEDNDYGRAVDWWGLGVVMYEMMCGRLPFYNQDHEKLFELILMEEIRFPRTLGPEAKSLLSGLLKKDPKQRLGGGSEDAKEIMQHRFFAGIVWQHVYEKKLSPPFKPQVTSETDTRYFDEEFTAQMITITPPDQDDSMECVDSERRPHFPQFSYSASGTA
Kd (Bcl-2),Compound,inhibition of PKC-α phosphotransferase activity [1],inhibition of PKB phosphotransferase activity (Akt kinase (PKB)),inhibition of CamKII phosphotransferase activity [3],other results
811 ± 20 nM,CC[C@H](C)[C@H](NC(=O)[C@H](CC(=O)O)NC(=O)[C@H](CC(=O)O)NC(=O)CNC(=O)[C@H](Cc1ccccc1)NC(=O)[C@H](Cc1ccc(O)cc1)NC(=O)[C@H](C)NC(=O)[C@H](CC(C)C)NC(=O)[C@H](CC(C)C)NC(=O)[C@H](CCCNC(=N)N)NC(=O)CNC(=O)[C@@H](NC(=O)[C@H](Cc1ccccc1)NC(=O)[C@H](CCCNC(=N)N)NC(=O)[C@@H](NC(=O)[C@H](CC(C)C)NC(=O)[C@H](CC(=O)O)NC(=O)[C@H](CCC(=O)O)NC(=O)[C@@H](NC(=O)[C@@H]1CCCN1C(=O)[C@H](C)NC(=O)[C@H](CC(=O)O)NC(=O)[C@H](CC(=O)O)NC(=O)CNC(=O)[C@@H]1CCCN1C(=O)[C@H](Cc1ccc(O)cc1)NC(=O)[C@@H](NC(=O)[C@@H]1CCCN1C(=O)[C@H](CCC(N)=O)NC(=O)[C@H](CO)NC(=O)[C@@H]1CCCN1C(=O)CN)[C@@H](C)O)C(C)C)[C@@H](C)CC)C(C)C)C(=O)N[C@@H](CC(N)=O)C(=O)N[C@@H](CCCNC(=N)N)C(=O)N[C@@H](CCCNC(=N)N)C(=O)N[C@@H](Cc1ccc(O)cc1)C(=O)N[C@@H](CSCC(=O)Nc1ccc2c(c1)C(=O)OC21c2ccc(O)cc2Oc2cc(O)ccc21)C(N)=O [p4101] (H-GPSQPTYPGDDAPVEDLIRFVGRLLAYFGDDINRRYC(Fluorescein(5-NHCOCH2))-NH2),,,,
401 ± 40 nM,CC[C@H](C)[C@H](NC(=O)[C@H](CCC(=O)O)NC(=O)[C@H](CC(=O)O)NC(=O)CNC(=O)[C@H](Cc1ccccc1)NC(=O)[C@H](Cc1ccc(O)cc1)NC(=O)[C@H](CCCNC(=N)N)NC(=O)[C@H](CC(C)C)NC(=O)[C@H](CC(C)C)NC(=O)[C@H](CCCNC(=N)N)NC(=O)CNC(=O)[C@@H](NC(=O)[C@H](Cc1ccccc1)NC(=O)[C@H](CCCNC(=N)N)NC(=O)[C@@H](NC(=O)[C@H](CC(C)C)NC(=O)[C@H](CC(=O)O)NC(=O)[C@H](CCC(=O)O)NC(=O)[C@@H](NC(=O)[C@@H]1CCCN1C(=O)[C@H](C)NC(=O)[C@H](CC(=O)O)NC(=O)[C@H](CC(=O)O)NC(=O)CNC(=O)[C@@H]1CCCN1C(=O)[C@H](Cc1ccc(O)cc1)NC(=O)[C@@H](NC(=O)[C@@H]1CCCN1C(=O)[C@H](CCC(N)=O)NC(=O)[C@H](CO)NC(=O)[C@@H]1CCCN1C(=O)CN)[C@@H](C)O)C(C)C)[C@@H](C)CC)C(C)C)C(=O)N[C@@H](CC(N)=O)C(=O)N[C@@H](CCCNC(=N)N)C(=O)N[C@@H](CCCNC(=N)N)C(N)=O [p4100] (H-GPSQPTYPGDDAPVEDLIRFVGRLLRYFGDEINRR-NH2),,,,

# More lines, now with the values behind:
Compound,Kd (Bcl-2),inhibition of PKC-α phosphotransferase activity [1],inhibition of PKB phosphotransferase activity (Akt kinase (PKB)),inhibition of CamKII phosphotransferase activity [3],other results
GPSQPTYPGDDAPVEDLIRFYNDLTYYLFVVSGRTGRRNAIHDC-NH2 (C-terminus assumed) [compound 1],,inhibiting no other kinase tested,inhibiting no other kinase tested,inhibiting no other kinase tested,inhibition of PKG phosphotransferase activity [2]: inhibiting no other kinase tested
CC[C@H](C)[C@H](NC(=O)[C@H](Cc1ccc(O)cc1)NC(=O)[C@H](CCCNC(=N)N)NC(=O)[C@H](CC(C)C)NC(=O)[C@H](CCCNC(=N)N)NC(=O)[C@H](CO)NC(=O)[C@@H](NC(=O)[C@H](Cc1ccccc1)NC(=O)[C@H](CCCNC(=N)N)NC(=O)[C@@H](NC(=O)[C@H](CC(C)C)NC(=O)[C@H](CC(=O)O)NC(=O)[C@H](CCC(=O)O)NC(=O)[C@@H](NC(=O)[C@@H]1CCCN1C(=O)[C@H](C)NC(=O)[C@H](CC(=O)O)NC(=O)[C@H](CC(=O)O)NC(=O)CNC(=O)[C@@H]1CCCN1C(=O)[C@H](Cc1ccc(O)cc1)NC(=O)[C@@H](NC(=O)[C@@H]1CCCN1C(=O)[C@H](CCC(N)=O)NC(=O)[C@H](CO)NC(=O)[C@@H]1CCCN1C(=O)CN)[C@@H](C)O)C(C)C)[C@@H](C)CC)C(C)C)C(=O)N[C@@H](C)C(=O)N[C@@H](CC(=O)O)C(=O)N[C@@H](CC(C)C)C(=O)N[C@H](C(=O)N[C@@H](CC(N)=O)C(=O)N[C@@H](CCCNC(=N)N)C(=O)N[C@@H](CCCNC(=N)N)C(=O)N[C@@H](Cc1ccc(O)cc1)C(=O)N[C@@H](CSCC(=O)Nc1ccc2c(c1)C(=O)OC21c2ccc(O)cc2Oc2cc(O)ccc21)C(N)=O)[C@@H](C)CC [p4102] (H-GPSQPTYPGDDAPVEDLIRFVSRLRYIADLINRRYC(Fluorescein(5-NHCOCH2))-NH2),3700 ± 1400 nM,,,,
CC[C@H](C)[C@H](NC(=O)[C@H](C)NC(=O)[C@H](CC(N)=O)NC(=O)[C@H](CCCNC(=N)N)NC(=O)[C@H](CCCNC(=N)N)NC(=O)CNC(=O)[C@@H](NC(=O)[C@@H](NC(=O)CNC(=O)[C@H](CC(C)C)NC(=O)[C@H](Cc1ccc(O)cc1)NC(=O)[C@@H](NC(=O)[C@H](Cc1ccccc1)NC(=O)[C@H](CC(C)C)NC(=O)[C@H](C)NC(=O)[C@H](Cc1ccc(O)cc1)NC(=O)[C@@H](NC(=O)[C@H](Cc1ccccc1)NC(=O)[C@H](CCCNC(=N)N)NC(=O)[C@@H](NC(=O)[C@H](CC(C)C)NC(=O)[C@H](CC(=O)O)NC(=O)[C@H](CCC(=O)O)NC(=O)[C@@H](NC(=O)[C@@H]1CCCN1C(=O)[C@H](C)NC(=O)[C@H](CC(=O)O)NC(=O)[C@H](CC(=O)O)NC(=O)CNC(=O)[C@@H]1CCCN1C(=O)[C@H](Cc1ccc(O)cc1)NC(=O)[C@@H](NC(=O)[C@@H]1CCCN1C(=O)[C@H](CCC(N)=O)NC(=O)[C@H](CO)NC(=O)[C@@H]1CCCN1C(=O)CN)[C@@H](C)O)C(C)C)[C@@H](C)CC)[C@@H](C)O)[C@@H](C)CC)C(C)C)C(C)C)C(=O)N[C@@H](Cc1c[nH]cn1)C(=O)N[C@@H](CC(=O)O)C(=O)N[C@@H](CSCC(=O)Nc1ccc2c(c1)C(=O)OC21c2ccc(O)cc2Oc2cc(O)ccc21)C(N)=O [2^Flu] (H-GPSQPTYPGDDAPVEDLIRFTYALFIYLGVVGRRNAIHDC(Fluorescein(5-NHCOCH2))-NH2; N-terminus and C-terminus assumed),,,,,Kd (catalytic subunit of PKA; presence of 100 μM ATP): 570 ± 123 nM
GPSQPTYPGDDAPVEDLIRFYNDLTYYLFVVSGRTGRRNC(X1)IHD-NH2 (C-terminus assumed) [1-K252a],,inhibiting no other kinase tested,inhibiting no other kinase tested,inhibiting no other kinase tested,fold more potent than 1 alone (PKA) (PKA): 30 fold; IC50 [2]: 679 ± 202 nM
GPSQPTYPGDDAPVEDLIRFYNDLTYYLFVVSGRTGRRNAIHDC(Fluorescein(5-NHCOCH2))-NH2 (C-terminus assumed) [1^Flu],,,,,fold lower stability of PKA complex than PKA·PKI5-24^Flu (catalytic subunit of PKA; 100 μM ATP): 3 fold; Kd (catalytic subunit of PKA; absence of ATP): 230 ± 34 nM; Kd (catalytic subunit of PKA; presence of 100 μM ATP): 99 ± 39 nM
CC[C@H](C)[C@H](NC(=O)[C@H](Cc1ccc(O)cc1)NC(=O)[C@H](Cc1ccccc1)NC(=O)[C@H](Cc1ccccc1)NC(=O)[C@H](COP(=O)(O)O)NC(=O)[C@H](CC(C)C)NC(=O)[C@H](CCCNC(=N)N)NC(=O)[C@H](CCCNC(=N)N)NC(=O)[C@@H](NC(=O)[C@@H]1CCCN1C(=O)[C@H](C)NC(=O)[C@H](CC(=O)O)NC(=O)[C@H](CC(=O)O)NC(=O)CNC(=O)[C@@H]1CCCN1C(=O)[C@H](Cc1ccc(O)cc1)NC(=O)[C@@H](NC(=O)[C@@H]1CCCN1C(=O)[C@H](CCC(N)=O)NC(=O)[C@H](CO)NC(=O)[C@@H]1CCCN1C(=O)CN)[C@@H](C)O)C(C)C)C(=O)N[C@@H](CC(C)C)C(=O)N[C@@H](C)C(=O)N[C@@H](CC(=O)O)C(=O)N[C@@H](CC(C)C)C(=O)N[C@@H](Cc1ccc(O)cc1)C(=O)N[C@@H](CC(C)C)C(=O)N[C@@H](CC(=O)O)C(=O)N[C@@H](C)C(=O)N1CCC[C@H]1C(=O)NCC(=O)N[C@H](C(=O)N[C@@H](CSCC(=O)Nc1ccc2c(c1)C(=O)OC21c2ccc(O)cc2Oc2cc(O)ccc21)C(N)=O)C(C)C [L24A] (H-GPSQPTYPGDDAPVRRL[pS]FFYILADLYLDAPGVC(Fluorescein(5-NHCOCH2))-NH2),,,,,Kd (CBP KIX wild type): 1160 ± 70 nM
CC[C@H](C)[C@H](NC(=O)[C@H](Cc1ccc(O)cc1)NC(=O)[C@H](Cc1ccccc1)NC(=O)[C@H](Cc1ccccc1)NC(=O)[C@H](COP(=O)(O)O)NC(=O)[C@H](CC(C)C)NC(=O)[C@H](CCCNC(=N)N)NC(=O)[C@H](CCCNC(=N)N)NC(=O)[C@@H](NC(=O)[C@@H]1CCCN1C(=O)[C@H](C)NC(=O)[C@H](CC(=O)O)NC(=O)[C@H](CC(=O)O)NC(=O)CNC(=O)[C@@H]1CCCN1C(=O)[C@H](Cc1ccc(O)cc1)NC(=O)[C@@H](NC(=O)[C@@H]1CCCN1C(=O)[C@H](CCC(N)=O)NC(=O)[C@H](CO)NC(=O)[C@@H]1CCCN1C(=O)CN)[C@@H](C)O)C(C)C)C(=O)N[C@@H](CC(C)C)C(=O)N[C@@H](CC(C)C)C(=O)N[C@@H](CC(=O)O)C(=O)N[C@@H](CC(C)C)C(=O)N[C@@H](Cc1ccc(O)cc1)C(=O)N[C@@H](C)C(=O)N[C@@H](CC(=O)O)C(=O)N[C@@H](C)C(=O)N1CCC[C@H]1C(=O)NCC(=O)N[C@H](C(=O)N[C@@H](CSCC(=O)Nc1ccc2c(c1)C(=O)OC21c2ccc(O)cc2Oc2cc(O)ccc21)C(N)=O)C(C)C [L28A] (H-GPSQPTYPGDDAPVRRL[pS]FFYILLDLYADAPGVC(Fluorescein(5-NHCOCH2))-NH2),,,,,Kd (CBP KIX wild type): 830 ± 110 nM
"COC(=O)[C@@]1(O)C[C@H]2O[C@]1(C)n1c3ccccc3c3c4c(c5c6ccccc6n2c5c31)C(=O)NC4 [K252a, reference compound]",,inhibited by K252a,inhibited by K252a,inhibited by K252a,IC50 (PKA; ATP and peptide substrate below KM): 0.14 ± 0.003 nM; inhibition of PKG phosphotransferase activity [2]: inhibited by K252a
